These compounds were tested against Induced myeloid leukemia cell differentiation protein Mcl-1 (Homo sapiens, UniProt Q07820) (assay: Mcl-1/Bim interaction regulators – biochemical, bead-based flow cytometry, multiplex, HTS hits, confirmation (AID 2086)). Conditions: not given.
Chain of Induced myeloid leukemia cell differentiation protein Mcl-1 (Q07820 whole entry): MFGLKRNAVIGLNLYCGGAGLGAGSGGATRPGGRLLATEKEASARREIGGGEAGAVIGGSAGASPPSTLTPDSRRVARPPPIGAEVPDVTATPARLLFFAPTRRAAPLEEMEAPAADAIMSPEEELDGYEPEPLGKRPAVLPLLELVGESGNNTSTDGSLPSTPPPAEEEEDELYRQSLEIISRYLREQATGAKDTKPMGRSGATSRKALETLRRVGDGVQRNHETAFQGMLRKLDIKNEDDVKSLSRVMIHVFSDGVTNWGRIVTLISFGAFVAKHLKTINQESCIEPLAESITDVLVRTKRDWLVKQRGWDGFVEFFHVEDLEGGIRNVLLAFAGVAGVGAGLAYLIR

Structure (SMILES)	EC50
Cc1ccc(C=NNC(=O)CSc2nnc(-c3ccc(Cl)cc3)n2-c2ccccc2)o1 [SMR000218122]	7.75 µM

Same assay, conditions: inactive by the depositor's call

Structure (SMILES)	EC50
O=C(NCc1ccccc1)c1ccc2nc(-c3ccco3)c(-c3ccco3)nc2c1 [2,3-bis(furan-2-yl)-N-(phenylmethyl)quinoxaline-6-carboxamide]	16 µM
COc1ccc(N2C(=O)C(Cl)=C(Oc3cccc(OC)c3)C2=O)cc1 [3-chloro-4-(3-methoxyphenoxy)-1-(4-methoxyphenyl)-1H-pyrrole-2,5-dione]	1.65 µM
CNC1CCC(Br)CC(C(=O)C=Cc2cccc(OC)c2OC)C1=O (centres undefined) [4-bromo-2-[(E)-3-(2,3-dimethoxyphenyl)-1-oxoprop-2-enyl]-7-(methylamino)-1-cycloheptanone]	37.4 µM
COc1cc(/N=C2\SSNC2Cl)c(OC)cc1Cl (centres undefined) [4-chloro-N-(4-chloro-2,5-dimethoxyphenyl)-5-dithiazolidinimine]	21.5 µM
Cc1ccc(-c2nc3c(c(=O)[nH]c(=O)n3Cc3ccccc3)n2C)o1 [7-methyl-8-(5-methyl-2-furanyl)-3-(phenylmethyl)purine-2,6-dione]	34.2 µM
O=C1NC(=O)C2(Cc3c(nc4ccccn4c3=O)N3CCCCCC32)C(=O)N1Cc1ccccc1 (centres undefined) [MLS000083668]	3.18 µM
COc1ccc(CCNC(=O)c2ccc3nc(-c4ccco4)c(-c4ccco4)nc3c2)cc1OC [N-[2-(3,4-dimethoxyphenyl)ethyl]-2,3-di-2-furylquinoxaline-6-carboxamide]	14.8 µM
Cc1cc2nn(-c3cccc4ccccc34)nc2cc1N [SMR000076237]	2.25 µM
